What was measured:
Stromelysin = target: T1, Stromelysin (Mus musculus, UniProt P28862); experiment: Stromelysin inhibiting activity (fluorescence labeled casein); type: biochemical; details: from mouse colon cancer cell (Colon 26); 3 hours at 37° C., pH 7.5
T1 construct: endogenous in cells; host or cells: Colon 26 (mouse colon cancer cells), culture supernatant, purified
Experimental: (1) Measuring Method of Stromelysin Inhibiting Activity
Inhibiting of Stromelysin refined from the culture supernatant of mouse colon cancer cell (Colon 26 cell) was measured by using fluorescence labeled casein, according to the method proposed by Miyazaki et al. (J. Biochem., 108, 537-543, 1990), and S. S. Twining [Fed. Proc., 42, 1951 (1984)].
The enzyme was activated by incubating for 2 hours at 37° C. in 1 mM mercury (II) p-aminophenylacetate. The test compound was used by dissolving in dimethyl sulfoxide. The enzyme reaction was started by adding the activated enzyme in a solution of 50 mM TRIS-hydrochloric acid (pH 7.5), 10 mM CaCl2, and 0.1% (v/v) dimethyl sulfoxide containing the test compound and 0.25% (w/v) of fluorescence labeled casein as substrate. The reaction was conducted for 3 hours at 37° C., and stopped by adding an equivalent amount of 5% (w/v) trichloroacetic acid solution. Afterwards, by centrifugal separation for 15 minutes at 3000 rpm, 4° C., the undigested substrate was precipitated, and to 1 part by volume of the obtained supernatant, 4 parts by volume of 0.3M phosphate buffer (pH 8.5) was added, and the fluorescence intensity was measured at 520 nm (Em)/495 nm (Ex), and the decomposition volume was quantitatively determined.
(§1) The enzyme inhibiting activity was expressed by the concentration (IC50) of the test compound wherein the enzyme activity of known amount was inhibited till 50%.

Interstitial collagenase = target: T2, Interstitial collagenase (Homo sapiens, UniProt P03956); experiment: Interstitial collagenase inhibiting activity (fluorescence labeled collagen); type: biochemical; details: from human fibroblast cell (Detroit 551); 2 hours at 35° C., pH 7.5
T2 construct: endogenous in cells; host or cells: Detroit 551 (human fibroblasts), culture supernatant, purified
T2 sequence (P03956 100-469): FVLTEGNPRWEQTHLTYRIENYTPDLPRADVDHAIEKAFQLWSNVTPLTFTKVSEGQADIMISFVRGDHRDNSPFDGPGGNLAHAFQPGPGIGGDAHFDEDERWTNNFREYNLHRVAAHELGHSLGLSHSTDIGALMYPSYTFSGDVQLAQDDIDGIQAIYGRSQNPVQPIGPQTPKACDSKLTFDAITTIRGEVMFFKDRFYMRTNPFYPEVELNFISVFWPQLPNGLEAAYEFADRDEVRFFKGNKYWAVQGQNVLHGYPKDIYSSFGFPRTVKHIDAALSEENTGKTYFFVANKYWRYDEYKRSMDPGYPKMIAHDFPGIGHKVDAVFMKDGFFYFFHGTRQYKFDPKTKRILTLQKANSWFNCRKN
Experimental: (2) Measuring Method of Interstitial Collagenase Inhibiting Activity
Inhibiting of interstitial collagenase refined from the culture supernatant of human fibroblast cell (Detroit 551 cell) was measured by using fluorescence labeled collagen, according to the method proposed by Nagai et al. [Inflammation, 4 (2), 123 (1984)].
The enzyme was activated by incubating for 3 hours at 37° C. in 1 mM mercury (II) p-aminophenylacetate. The test compound was used by dissolving in dimethyl sulfoxide. The enzyme reaction was started by adding the activated enzyme in 50 mM TRIS-hydrochloric acid (pH 7.5), 0.2M NaCl, 5 mM CaCl2, 0.02% (w/v) NaN3, 2.5 mM acetic acid, and 0.1% (v/v) dimethyl sulfoxide solution containing the test compound and 0.025% (w/v) of fluorescence labeled collagen as substrate. The reaction was conducted for 2 hours at 35° C., and stopped by adding ice-chilled 80 mM O-phenanthroline, 50% (v/v) ethanol solution by 1/20 amount. To this, moreover, an equivalent volume of 50 mM TRIS-hydrochloric acid (pH 7.5), 0.2M NaCl, 5 mM CaCl2, 0.02% (w/v) NaN3 solution was added to incubate further for 1 hour at 35° C. to degenerate specifically only the digestion product, and the digestion product was extracted by adding 0.17M TRIS-hydrochloric acid (pH 9.5), 0.67M NaCl solution including an equivalent amount of 70% (v/v) ethanol, and afterwards, by centrifugal separation for 15 minutes at 3000 rpm, 4° C., the undigested substrate was precipitated. The fluorescence intensity of the obtained supernatant was measured at 520 nm (Em)/495 nm (Ex), and the decomposition volume was quantitatively determined.
as §1

T1 sequence (P28862 100-477): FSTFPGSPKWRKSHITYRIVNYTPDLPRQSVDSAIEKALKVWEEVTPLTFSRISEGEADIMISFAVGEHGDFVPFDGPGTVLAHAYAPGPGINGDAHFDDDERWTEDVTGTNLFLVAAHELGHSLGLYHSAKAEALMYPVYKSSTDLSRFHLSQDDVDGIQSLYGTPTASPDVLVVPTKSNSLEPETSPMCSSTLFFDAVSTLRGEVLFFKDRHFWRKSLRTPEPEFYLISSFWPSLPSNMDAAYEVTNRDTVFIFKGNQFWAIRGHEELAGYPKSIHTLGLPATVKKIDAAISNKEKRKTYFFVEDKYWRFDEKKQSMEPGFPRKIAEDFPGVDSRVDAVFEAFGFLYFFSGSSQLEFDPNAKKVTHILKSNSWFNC

Compound | IC50 (Stromelysin) | IC50 (Interstitial collagenase)
COC(=O)c1ccc(CN2C(=O)[C@@H](NC(=O)[C@@H](CC(=O)NO)CC(C)C)Cc3ccccc32)cc1 [Test compound 11, 3S-[4-(N-hydroxyamino)-2R-isobutylsuccinyl]amino-1-(4-methoxycarbonylbenzyl)-3,4-dihydrocarbostyril] | 290 nM | 750 nM
CCON1C(=O)[C@@H](NC(=O)[C@@H](CC(=O)NO)CC(C)C)Cc2ccccc21 [Test compound 17, 1-ethoxy-3S-[4-(N-hydroxyamino)-2R-isobutylsuccinyl]amino-3,4-dihydrocarbostyril] |  | 41 nM
COCCOCN1C(=O)[C@@H](NC(=O)[C@@H](CC(=O)NO)CC(C)C)Cc2ccccc21 [Test compound 18, 3S-[4-(N-hydroxyamino)-2R-isobutylsuccinyl]amino-1-methoxyethoxymethyl-3,4-dihydrocarbostyril] |  | 88 nM
CCCCCCC[C@H](CC(=O)NO)C(=O)N[C@H]1Cc2ccccc2N(OC)C1=O [Test compound 20, 3S-[4-(N-hydroxyamino)-2R-heptylsuccinyl]amino-1-methoxy-3,4-dihydrocarbostyril] |  | 220 nM
CCOCC[C@H](CC(=O)NO)C(=O)N[C@H]1Cc2ccccc2N(OC)C1=O [Test compound 22, 3S-[4-(N-hydroxyamino)-2R-ethoxyethylsuccinyl]amino-1-methoxy-3,4-dihydrocarbostyril] |  | 3700 nM
CON1C(=O)[C@@H](NC(=O)[C@H](CC(C)C)C(Cc2ccc3c(c2)OCO3)C(=O)NO)Cc2ccccc21 (stereo partly drawn) [Test compound 23, 3S-[4-(N-hydroxyamino)-2R-isobutyl-3-(3,4-methylenedioxybenzyl)succinyl]amino-1-methoxy-3,4-dihydrocarbostyril] |  | 0.064 nM
COCCN1C(=O)[C@@H](NC(=O)[C@@H](CC(=O)NO)CC(C)C)Cc2cc3c(cc21)OCO3 [Test compound 24, 3S-[4-(N-hydroxyamino)-2R-isobutylsuccinyl]amino-1-methoxyethyl-6,7-methylenedioxy-3,4-dihydrocarbostyril] |  | 740 nM
COCCN1C(=O)[C@H](NC(=O)[C@@H](CC(=O)NO)CC(C)C)Cc2cc3c(cc21)OCO3 [Test compound 25, 3R-[4-(N-hydroxyamino)-2R-isobutylsuccinyl]amino-1-methoxyethyl-6,7-methylenedioxy-3,4-dihydrocarbostyril] |  | 4100 nM
COCCN1C(=O)C(NC(=O)[C@@H](CC(=O)NO)CC(C)C)Cc2cc3c(cc21)OCO3 (stereo partly drawn) [Test compound 26, 3-[4-(N-hydroxyamino)-2R-isobutylsuccinyl]amino-1-methoxyethyl-6,7-methylendioxy-3,4-dihydrocarbostyril] |  | 1000 nM
CCN1C(=O)[C@@H](NC(=O)[C@@H](CC(=O)NO)CC(C)C)Cc2cc3c(cc21)OCO3 [Test compound 28, 1-ethyl-3S-[4-(N-hydroxyamino)-2R-isobutylsuccinyl]amino-6,7-methylenedioxy-3,4-dihydrocarbostyril] |  | 87 nM
CCCCC[C@H](CC(=O)NO)C(=O)N[C@H]1Cc2ccccc2N(OC)C1=O [Test compound 30, 3S-[4-(N-hydroxyamino)-2R-pentylsuccinyl]amino-1-methoxy-3,4-dihydrocarbostyril] |  | 11 nM
COCON1C(=O)[C@@H](NC(=O)[C@@H](CC(=O)NO)CC(C)C)Cc2ccccc21 [Test compound 31, 3S-[4-(N-hydroxyamino)-2R-isobutylsuccinyl]amino-1-methoxymethoxy-3,4-dihydrocarbostyril] |  | 370 nM

Now from value to molecule:

IC50 (Stromelysin) | IC50 (Interstitial collagenase) | Compound
380 nM | 160 nM | CCOC(=O)CN1C(=O)[C@@H](NC(=O)[C@@H](CC(=O)NO)CC(C)C)Cc2ccccc21 [Test compound 8, 1-ethoxycarbonylmethyl-3S-[4-(N-hydroxyamino)-2R-isobutylsuccinyl]amino-3,4-dihydrocarbostyril]
36 nM | 22 nM | CON1C(=O)[C@@H](NC(=O)[C@H](CC(C)C)[C@H](C)C(=O)NO)Cc2ccccc21 [Test compound 9, 3S-[4-(N-hydroxyamino)-2R-isobutyl-3S-methylsuccinyl]amino-1-methoxy-3,4-dihydrocarbostyril]
200 nM | 31 nM | CC(C)C[C@H](CC(=O)NO)C(=O)N[C@H]1Cc2ccccc2N(CC(N)=O)C1=O [Test compound 10, 1-aminocarbonylmethyl-3S-[4-(N-hydroxyamino)-2R-isobutylsuccinyl]amino-3,4-dihydrocarbostyril]
700 nM | 290 nM | CCN1C(=O)[C@@H](NC(=O)[C@@H](CC(=O)NO)CC(C)C)Cc2ccccc21 [Test compound 12, 1-ethyl-3S-[4-(N-hydroxyamino)-2R-isobutylsuccinyl]amino-3,4-dihydrocarbostyril]
28 nM | 10 nM | C=CCN1C(=O)[C@@H](NC(=O)[C@H](CC(C)C)[C@H](C)C(=O)NO)Cc2ccccc21 [Test compound 13, 1-allyl-3S-[4-(N-hydroxyamino)-2R-isobutyl-3S-methylsuccinyl]amino-3,4-dihydrocarbostyril]
37 nM | 22 nM | COCN1C(=O)[C@@H](NC(=O)[C@@H](CC(=O)NO)CC(C)C)Cc2ccccc21 [Test compound 14, 3S-[4-(N-hydroxyamino)-2R-isobutylsuccinyl]amino-1-methoxymethyl-3,4-dihydrocarbostyril]
 | 20 nM | C#CCN1C(=O)[C@@H](NC(=O)[C@H](CC(C)C)[C@H](C)C(=O)NO)Cc2ccccc21 [Test compound 15, 3S-[4-(N-hydroxyamino)-2R-isobutyl-3S-methylsuccinyl]amino-1-(2-propynyl)-3,4-dihydrocarbostyril]
 | 69 nM | CC(C)C[C@@H](C(=O)N[C@H]1Cc2ccccc2N(CC(=O)O)C1=O)[C@H](C)C(=O)NO [Test compound 16, 1-carboxymethyl-3S-[4-(N-hydroxyamino)-2R-isobutyl-3S-methylsuccinyl]amino-3,4-dihydrocarbostyril]
 | 110 nM | COCCN1C(=O)[C@@H](NC(=O)[C@@H](CC(=O)NO)CC(C)C)Cc2ccccc21 [Test compound 21, 3S-[4-(N-hydroxyamino)-2R-isobutylsuccinyl]amino-1-methoxyethyl-3,4-dihydrocarbostyril]
